For 86 compounds, IC50 results are on record in PubChem BioAssay AID2305 (GlaxoSmithKline (GSK), 2010).

This test has as its system P. falciparum 3D7 growth, pLDH absorbance. The test can be described thus: P. falciparum 3D7 growth inhibition, dose response, strain 3D7 (AID 2305).

For the compound `CCC(CC)C(CC(=O)NC(C)(C)CCc1ccccc1OC)Nc1ccc(C#N)c2ccccc12` (stereo unspecified), the IC50 (as a rule, the midpoint of a concentration-inhibition curve) was found to be 800 nM.
The figure for `Cc1[nH]c2c(c(=O)c1Cl)-c1ccc(Oc3cccc(C(F)(F)F)c3)cc1C2=O` is 40 nM; for `Nc1nc(N)c2c(ccc3ccccc32)n1` it is 750 nM; for `Cn1nccc1C(=O)NCCNCc1ccc(-c2ccc(-c3nc4ccc(F)cc4[nH]3)cc2)cc1` it is 300 nM.
Under `O=C(c1cc(-c2ccco2)[nH]n1)N1CCN(S(=O)(=O)c2ccc(Br)cc2)CC1` stands 500 nM.
The figure for `Cc1cc(N[C@@H](CC(C)C)C(=O)NCc2cccs2)nc(NCCc2ccc(F)cc2)n1` is 800 nM.
In turn, `O=C(c1cc(-c2cccs2)[nH]n1)N1CCN(S(=O)(=O)c2ccc(Cl)s2)CC1` returned an IC50 of 870 nM.
Under `Cc1ccc(NC(=O)N2CCCN(CCCCCNC(=O)/C=C/c3ccc(Cl)c(Cl)c3)CC2)cc1` stands 760 nM; under `COc1ccccc1CNC(=O)c1ccc(N2CCN(c3ccncc3)CC2)cn1`, 1360 nM.
Under `CS(=O)(=O)CCNCc1cccc(-c2cc3nccc(Nc4ccc(Oc5ccccc5)cc4)c3cc2Cl)c1` stands 620 nM; under `COc1ccc(Nc2nccc(N3CCC(NC(=O)c4cccc(NC(C)=O)c4)C3)n2)cc1` (stereo unspecified), 990 nM.
The figure for `c1ccc(Oc2ccc(Nc3ccnc4cc(-c5ccc(CN6CCCCC6)o5)ccc34)cc2)nc1` is 330 nM.
As to `COc1cccc(OC)c1-c1ccccc1NC(=O)N1CCCc2cc(C)ccc21`, the half-inhibitory concentration (IC50) amounted to 820 nM.
As for `Cc1ccccc1C1CCN(c2ccc(C(=O)Nc3ccccc3)cn2)CC1`, the IC50 worked out at 330 nM.
The figure for `CS(=O)(=O)Nc1ccc2[nH]cc(C3CCN(CC4CCC(NC(=O)/C=C/c5ccccc5Cl)CC4)CC3)c2c1` (stereo unspecified) is 790 nM; for `NC(=S)Cc1ccc2c(c1)OCO2` it is 280 nM.
Under `COc1cc2c(cc1N1C[C@@H](C)N[C@@H](C)C1)N(C(=O)c1ccc(-c3ccc(-c4ncc[nH]4)cc3C)cc1)CC2` stands 720 nM; under `Oc1ccc(CCNc2nc(NCc3cccc(-c4cc(C(F)(F)F)ccc4Cl)c3)nc(N3CCNCC3)n2)cc1`, 1780 nM; under `OC1CCCN(Cc2ccc(-c3ccc(-c4nc5ccccc5[nH]4)cc3)cc2)C1` (stereo unspecified), 840 nM.
The figure for `CC(=O)Nc1cccc(C(=O)Nc2ccc(-c3cccc(-c4nc5c(C)cccc5[nH]4)c3)cc2)c1` is 790 nM.
As to `Cc1cc(Cl)ccc1NC(=O)Nc1ccc2nccc(N3CCN(C)CC3)c2c1`, the half-inhibitory concentration (IC50) was determined as 390 nM.
The figure for `CCCCCCCN1CC[C@@H](CCCc2ccnc3ccc(OCCN4CCNCC4)cc23)[C@@H](CC)C1` is 770 nM; for `COc1ccc2nccc([C@@H](O)CN3CCC(NC(=O)C(c4cc5ccccc5o4)N4CCN(C(c5ccccc5)c5ccccc5)CC4)CC3)c2c1` (stereo partly specified) it is 150 nM; for `Nc1ncc(-c2ccccc2)cc1-c1nc2cc(Cl)c(F)cc2[nH]1` it is 260 nM.
Compound `CCOC(=O)c1ccc(OCCOc2ccccc2)cc1` registered an IC50 of 370 nM.
The figure for `COc1cccc(-c2ccc(NC(=O)C3CCCN(Cc4cccc(OC)c4O)C3)cc2)c1` (stereo unspecified) is 850 nM; for `C[C@@H](Nc1nc(NCc2ccccc2)c2sccc2n1)c1ccccc1` it is 920 nM; for `CN(C)CCN(C)Cc1ccc(-c2ccc3c(Nc4ccc(Oc5ccccn5)cc4)ccnc3c2)o1` it is 420 nM.
Under `COc1ccccc1C1CCN(C2CCC(NC(=O)c3ccc4nc(-c5ccc(C)cc5)[nH]c4c3)CC2)CC1` (stereo unspecified) stands 310 nM; under `CC(C)COc1ccc2ccccc2c1CNCCCCCCNCc1c(OCC(C)C)ccc2ccccc12`, 700 nM; under `CN1c2ccccc2Sc2cc(CNCCSCCNCc3ccc4c(c3)Sc3ccccc3N4C)ccc21`, 1010 nM.
Under `NCc1ccc(CNCc2ccc(-c3ccc(-c4nc5ccc(F)cc5[nH]4)cc3)cc2)cc1` stands 400 nM; under `CCN(CC)CCN(Cc1ccc(-c2ccc(C(F)(F)F)cc2)cc1)C(=O)Cn1c(CCc2ccc(F)cc2)nc(=O)c2sccc21`, 670 nM.
`Cc1cc(N2CCN(C)CC2)nc2ccc(NC(=O)c3cccc(N(C)C)c3)cc12`: the 50% inhibitory concentration (IC50) amounted to 950 nM.
The figure for `Cc1nc(N)nc(N)c1CCCOc1ccccc1Br` is 420 nM; for `O=C(/C=C/c1ccc(Cl)c(Cl)c1)NCCCCCN1CCCN(C(=O)Nc2ccc(F)c(Cl)c2)CC1` it is 800 nM; for `Cc1cc(N(CCCN(C)C)Cc2cc(F)cc(F)c2)nc(Nc2ccc(Cl)cc2)n1` it is 540 nM.
Under `CN(CC(=O)Nc1ccc(F)cc1)C(=O)c1ccc(-c2ccc(F)cc2)o1` stands 930 nM.
The figure for `Cc1ccc(F)cc1S(=O)(=O)NCC(C)c1ccc(NC(=O)Nc2cccc(F)c2)cc1` (stereo unspecified) is 970 nM.
`Oc1ccc(CCCNc2nc(NCc3ccccc3-c3ccccc3)nc(NC3CCNCC3)n2)cc1`: the IC50 was 860 nM.
Under `S=C(NN=Cc1ccccn1)Nc1ccc(Cl)c(Cl)c1` stands 770 nM; under `O=C1C(c2ccccc2)=C(Nc2cccc(OC(F)(F)C(F)F)c2)c2ccccc21`, 180 nM.
In the case of `C[C@H](NC(=O)c1cc(-c2ccc(C(C)(C)C)cc2)no1)C(=O)O` (tested in a mixture with another compound), the IC50 came to 140 nM.
Under `NCC1CCCN1Cc1ccc(-c2ccc(-c3nc4ccc(C(F)(F)F)cc4[nH]3)cc2)cc1` (stereo unspecified) stands 960 nM; under `OC1(c2ccccc2)CCN(Cc2cccc(-c3c[nH]c4nc(NC5CCCC5)ncc34)c2)C1` (stereo unspecified), 910 nM; under `Clc1nc(Cl)c2c(ccn2Cc2ccccc2)n1`, 790 nM.
The figure for `NCc1ccc(Nc2nccc(Nc3ccc(-c4ccccc4)cc3)n2)cc1` is 890 nM.
Under `FC(F)(F)COc1ccc2ccccc2c1CCNCCCCNCCc1c(OCC(F)(F)F)ccc2ccccc12` stands 430 nM; under `COc1ccccc1-c1ccc(CNC(=O)C(CN2CCN(C)CC2)c2ccccc2)cc1` (stereo unspecified), 1260 nM.
In turn, `CNCCNCc1cccc(-c2ccc(-c3nc4ccccc4[nH]3)cc2)c1` yielded a concentration for half-maximal inhibition (IC50) of 740 nM.
`Cc1nc(N)nc(N)c1CCCOc1cccc(Cl)c1` displayed a half-inhibitory concentration (IC50) of 480 nM.
The figure for `CC1(C)N=C(N)N=C(N)N1c1ccccc1` is 330 nM; for `CCC(C)NC(=O)Nc1ccc(-c2cccc(-c3nc4ccccc4[nH]3)c2)cc1` (stereo unspecified) it is 820 nM; for `O=C(/C=C/c1ccc(Cl)c(Cl)c1)NCCCCCN1CC[C@H](c2c[nH]c3ccccc23)[C@H](O)C1` it is 820 nM.
The figure for `COc1ccccc1CN1CCC(NC(=O)c2ccc(-c3cccc(Cl)c3)s2)CC1` is 1420 nM; for `CN(C)CCNCc1cccc(-c2ccc3c(Nc4ccc(Oc5ccccc5)cc4)ccnc3c2)c1` it is 440 nM; for `CC(C)NCc1cccc(-c2ccc(-c3nc4ccc(C(F)(F)F)cc4[nH]3)cc2)c1` it is 190 nM.
For the compound `Cc1noc(C)c1-c1ccc2c(Nc3nccc4ccccc34)c(C(N)=O)cnc2c1`, the IC50 was found to be 890 nM.
As to `O=C(c1cccs1)N(Cc1cccc(-c2ccc(CNCCc3ccccc3)cc2)c1)C1CCN(Cc2ccccc2)CC1`, the IC50 turned out to be 860 nM.
The figure for `CC(C)(C)c1ccc(CNCCOc2ccc(Nc3nnc(-c4ccc(-c5ncc[nH]5)cc4)o3)c3ccccc23)cc1` is 140 nM; for `C[C@@H](C(N)=O)N1CCCCC1c1ccc(OCc2cccc(F)c2)cc1` (stereo partly specified) it is 990 nM.
The figure for `CCCCCCCN1CC[C@@H](CCCc2ccnc3ccc(OCCCCN=C(N)NO)cc23)[C@@H](CC)C1` is 950 nM.
Under `Cc1ccc(NC(=O)c2nc(N3CCN(c4ccncc4)CC3)ccc2Cl)cc1F` stands 810 nM; under `Cc1cccc(Cn2c(Cc3ccccc3)nnc2Sc2ccc([N+](=O)[O-])c(C#N)c2)c1`, 1140 nM; under `CCCC(C(=O)OCCN(CC)CC)(c1ccc(Cl)cc1)c1ccc(Cl)cc1`, 880 nM.
In the case of `CN(C)CCOc1ccc(NC(=O)Nc2ccnc3c(Br)cccc23)cc1Cl`, the IC50 was 840 nM.
The figure for `O=c1cc(NCCCNCc2ccc3c(c2)OC(F)(F)O3)[nH]c2ccccc12` is 770 nM.
Under `CCOC(=O)CC[C@H](NC(=O)c1ccc(NS(=O)(=O)c2ccc(-c3cnc(N)[nH]c3=O)cc2)cc1)C(=O)OCC` stands 170 nM.
The figure for `N#Cc1ccc(-c2ccc(C(=O)NC3CCN(CCN4CCC(c5cn(CCO)c6ccccc56)CC4)CC3)cc2)cc1` is 760 nM; for `CCCCCCN1CCCN(Cc2ccc(C(=O)Nc3ccc(F)c(F)c3)cc2)CC1` it is 610 nM.
`O=C(NC1CCCCC1)N(Cc1cccc(-c2ccc(CNCCc3ccccc3)cc2)c1)C1CCN(Cc2ccccc2)CC1` came in with a half-inhibitory concentration (IC50) of 650 nM.
Under `O=C(Nc1ccc(-c2cccc(-c3nc4ccccc4[nH]3)c2)cc1)Nc1ccsc1` stands 250 nM; under `CN(CC(=O)Nc1cc(C(F)(F)F)ccc1-n1cncn1)Cc1ccc2ccccc2c1`, 230 nM; under `CC(=O)N1CCC(C(=O)Nc2ccc(-c3cccc(-c4nc5ccc(C(F)(F)F)cc5[nH]4)c3)cc2)CC1`, 240 nM.
Under `Cc1[nH]c(C)c(-c2ccc(OCCOc3ccc(C(F)(F)F)cn3)cc2)c(=O)c1Br` stands 140 nM.
The figure for `O=S(=O)(NCCN1CCCC1)c1cccc(-c2cccc(CNCCc3cccs3)c2)c1` is 750 nM.
`O=C(Nc1cc(=O)[nH]c2nc(-c3ccccc3)nn12)C1CCCCC1`: the concentration for half-maximal inhibition (IC50) worked out at 420 nM.
`Cc1cc(NS(=O)(=O)c2cccc(C(C)N3CCC(N4CCCC4)CC3)c2)ccc1C(C)C` (stereo unspecified): the half-inhibitory concentration (IC50) came to 820 nM.
Under `N#Cc1ccc(N(CCOc2ccc(Cl)c(Cl)c2)Cc2ccccc2C(F)(F)F)cc1C(F)(F)F` stands 1110 nM; under `O=C(C=Cc1ccc(Cl)c(Cl)c1)NCCCCCN1CCCC(CCCNC(=O)c2ccc3c(c2)OCO3)C1` (stereo unspecified), 1220 nM; under `COc1ccc(Cc2c(C)nc3nc(N)nc(N)c3c2C)cc1`, 280 nM.
`CC1(C)N=C(N)N=C(N)N1OCc1cc(Cl)c(CON2C(N)=NC(N)=NC2(C)C)cc1Cl` returned a concentration for half-maximal inhibition (IC50) of 40 nM.
Under `N#Cc1cccc(CN(Cc2ccc(Cl)c(Cl)c2)S(=O)(=O)c2cccc([N+](=O)[O-])c2)c1` stands 810 nM; under `O=C(/C=C/c1ccc(Cl)c(Cl)c1)NCCCCCN1CC[C@H](NC(=O)/C=C/c2ccccc2)C1`, 1000 nM; under `CCOC(=O)CN1Cc2cc(NCc3ccc4ccc5nc(C)[nH]c(=O)c5c4c3)ccc2C1=O`, 700 nM.
Take `Cc1cccc2[nH]c(-c3cccc(-c4cccc(NC(=O)CN5CCN(C)CC5)c4)c3)nc12`: the IC50 was 530 nM.
